Patent US4892871A, “Azido-substituted octopamine agonists and the use thereof to control invertebrate pests” (The General Hospital Corporation, priority 1988, dated 1990)
Like-named read-outs stand apart in the source and are kept apart here.

Legend:
[1] = system: octopamine receptors; test: Irreversible activation of adenylate cyclase after photolysis of firefly light organ membranes; assay type: biochemical; conditions: photolyzed, washed
From the text: When exposed to ultraviolet light in these wavelengths, the N3 azido group on the para-position is photolyzed to yield free N2 and a […] covalently with a number of protein sites, including areas with double bonds, amino groups and carboxylic acids. If compound IV is occupying an octopamine receptor at the time of photolysis, then the ligand will bind to a site on or near the receptor protein. […] To determine this, a series of photolysis experiments were performed in which firefly light organ membranes were preincubated with or without compound IV and then photolyzed. Next, the membranes were extensively washed to remove all free ligand and any ligand that was not covalently bound. Following this, adenylate cyclase activity was assayed. […] Presumably, the excess octopamine displaced compound IV so that, when the membranes were later photolyzed, octopamine (and not compound IV) was occupying the receptor. Subsequently, during washing, the octopamine was removed so that the receptor returned to its unstimulated state.

[2] = system: intact firefly light organ; test: Light emission after injection into isolated firefly tails; assay type: in vivo
Method: In the second verification procedure, a bioassay was conducted which measured the effect of tritiated VIII on eliciting light emission when injected into isolated firefly tails.

[3] = system: Manduca larvae; test: Antifeeding activity, Manduca larvae on sprayed tomato leaves; assay type: in vivo; conditions: percentage of leaf area remaining after 72 hours, dim light
[4] = system: octopamine receptors; test: Irreversible (UV) binding of compound VIII to firefly light organ membranes and displacement; conditions: for displacement of irreversible VIII binding (in words): other experiments, nonoctopaminergic compounds
Method: In these experiments, membranes were preincubated with the probe for under various conditions and then the mixture was photolyzed in quartz microcuvettes using a UV-C germicidal lamp. […] To determine whether the binding was specific, various displacing agents were added during the preincubation with tritiated IV (VIII), and the mixture then photolyzed.

[5] = system: Light Organ Adenylate Cyclase; test: Antagonist inhibition of agonist-stimulated light organ adenylate cyclase; assay type: biochemical, firefly; conditions: for inhibition of compound IV stimulation of adenylate cyclase (in words): stimulation by compound IV; for Ki: read-out: Calculated Ki
[6] = system: octopamine receptor protein(s); test: SDS-polyacrylamide gel autoradiogram of light organ membrane proteins photolabeled with VIII; assay type: binding, firefly
[7] = system: octopamine-sensitive adenylate cyclase; test: Activation of adenylate cyclase in firefly light organ membrane (broken cell) preparations; assay type: biochemical, Photinus pyralis; conditions: for Ka (concentration necessary for half-maximal activation of cyclase activity): firefly light organ membranes, reversible conditions
Method: The question of whether a given azido-substituted compound within the scope of the invention is an octopamine agonist can be readily answered by measuring adenylate cyclase activity of the octopamine-sensitive adenylate cyclase present in broken cell preparations of the firefly light organ. […] Specimens of Photinus pyralis are prepared by opening their tail sections, cleaning them, removing the light organs, and homogenizing the cyclase-containing fraction. Adenylate cyclase activity is measured in appropriate buffer-containing ATP, cofactors, and the compound to be tested. Normally, the solution mixture contains a phosphodiesterase inhibitor such as theophylline, and the assay is designed to provide linear measurements with respect to time and enzyme concentration. If necessary, the compounds to be tested are initially solubilized and appropriate solvent controls are run in parallel. The enzyme reaction is initiated by addition of ATP, stopped by heating, and centrifuged. Cyclic AMP can be measured by any test which indicates the presence thereof, preferably by the protein binding assay of Brown et al. (Advances in Cyclic Nucleotide Research 2:25-40 (1972)). The determination of the constant Ka, which is the concentration of the azido-substituted agonist necessary for half-maximal activation of cyclase activity, is carried out by measuring cyclase activity in the preparation, and plotting the activity (above control activity) versus the semilogarithm of the particular agonist concentration. This is done for a series of increasing concentrations until maximal activity (Vmax) is reached. Ka^(Azido) is then calculated from the graph as the agonist concentration required for one-half of Vmax. Ka^(Azido) is compared with the constant (Ka^oct) determined in an analogous way using ±p-octopamine as the agonist. The ratio Ka^oct /ka^(Azido) is then an indication of whether a particular azido-substituted agonist (Azido) is more (ratio greater than 1) or less (ratio smaller than 1) active than (±)-p-octopamine (oct). […]

[8] = system: octopamine receptors; test: Autoradiography of intact isolated firefly light organs labeled with VIII
Method: Because compound VIII binds irreversibly, it should have potential as an anatomic probe to […] localize octopamine receptors at the light microscopic level. To determine if this is feasible, some preliminary studies were conducted using intact isolated firefly light organs. The lanterns were first preincubated with VIII in dim light and then exposed either to no light or to intense UV. Following this step, the lanterns were extensively washed, then slide mounted, dehydrated, and exposed to tritium-sensitive X-ray film. […] In the absence of UV light, there was no labeling. Localization of octopamine receptors, particularly in the nervous system, should aid in an understanding of how octopamine exerts its behavioral effects in insects.

[9] = system: octopamine receptor; test: Reversible binding of compound VIII to light organ membranes (filtration); design: species or system firefly
From the text: The low affinity of octopamine for its receptor (Ka =30 micromolar) results in a half-time of dissociation of considerably less than 0.1 second. This precludes the use of labeled octopamine as a receptor ligand since the time required for the separation of free from bound ligand during a filtration assay is several seconds. […] In other words, following washing, enough ligand will still be on the receptor to allow estimation of the receptor's binding constant for compound IV. (Because there will still be significant loss of label during filtration, one cannot use this type of assay to estimate total receptor number).

[10] = system: octopamine receptor; test: In vitro octopamine agonist activity in the cockroach; assay type: biochemical
From the text: (§1) However, use of formamidines as pest controlling agents gives rise to certain problems, including the fact that the aniline breakdown products are carcinogenic. Moreover, a further problem is that the range of activity of these compounds is limited to a relatively few insect species. Matsumura, F., et al.. Environ. Health Perspect. 14: 71-82 (1976). […] Consistent with this in vitro activity, the formamidines are toxic in Manduca but not in the cockroach.

[11] = system: octopamine receptor; test: In vitro octopamine agonist activity in Manduca; assay type: biochemical
From the text: as §1

[12] = system: adenylate cyclase; conditions: cited from earlier work

CCc1cc(N=[N+]=[N-])cc(CC)c1N=C1NCCN1 [compound IV, (4-azido-2,6-diethylphenyl)imino-2-imidazoline]
increase in adenylate cyclase activity after prior photolysis and washing ([1]; membranes preincubated with compound): 3 fold
potency relative to octopamine in stimulating light emission ([2]; injected into isolated firefly tails): about 15 fold
potency relative to octopamine in inhibiting feeding [3]: about 10 fold

NCCc1c[nH]c2ccc(O)cc12 [serotonin]
displacement of irreversible VIII binding (in words) [4]: not displaced

CN1CCN2c3ccccc3Cc3ccccc3C2C1 (centres unmarked) [Mianserin, mianserin]
inhibition of compound IV stimulation of adenylate cyclase (in words) [5]: inhibited
effect on VIII labeling of the protein peak at MW 74,000 ([6]; excess antagonist present during photolysis): completely blocked

NCCc1c[nH]cn1 [histamine]
displacement of irreversible VIII binding (in words) [4]: not displaced

NCC(O)c1ccc(O)cc1 (centres unmarked) [octopamine]
irreversible activation after preincubation with compound alone [1]: failed to cause any irreversible activation
Ka (concentration necessary for half-maximal activation of cyclase activity) [7]: 30 µM

NC[C@H](O)c1ccc(O)c(O)c1 [norepinephrine]
displacement of irreversible VIII binding (in words) [4]: not displaced

NCCc1ccc(O)c(O)c1 [dopamine]
displacement of irreversible VIII binding (in words) [4]: not displaced

[3H]c1c(CC)c(N=C2NCCN2)c(CC)c([3H])c1N=[N+]=[N-] [compound VIII, 2-(4-azido-2,6-diethyl-3,5-ditritiophenyl)imino-2-imidazoline]
labeling of the lantern ([8]; absence of UV light): no labeling
labeling of the lantern ([8]; exposed to intense UV): marked labeling
light response compared with genuine unlabeled compound ([2]; injection of 0.5 nmoles into isolated firefly tails): identical
concentration at which specific binding saturates ([9]; specific binding = absence minus presence of 1000-fold excess mianserin): about 2 micromolar
Kd ([9]; specific binding, light organ membranes, read-out: concentration at which 50% binding occurs): ~0.8 µM
Ka (concentration necessary for half-maximal activation of cyclase activity) [7]: about 0.5 micromolar
adenylate cyclase activity profile compared with unlabeled IV ([7]; light organ membranes): virtually identical
increase in amount of label permanently bound on exposure to UV light ([4]; photolyzed vs no UV): 14 fold
proteins labeled on gel ([6]; absence of UV radiation (lane C)): no proteins were labeled
proteins labeled on gel ([6]; photolyzed with UV (lane A)): Four major labeled peaks

CN1CCC(=C2c3ccccc3C=Cc3ccccc32)CC1 [Cyproheptadine, cyproheptadine]
inhibition of compound IV stimulation of adenylate cyclase (in words) [5]: inhibited

Cc1cc(Cl)ccc1N=CN [DDCDM, didemethylchlordimeform]
agonist character [10]: very weak and partial agonist
agonist character [11]: full agonist
potency relative to octopamine [11]: 20 fold

Cc1ccc(N(CC2=NCCN2)c2cccc(O)c2)cc1 [Phentolamine, phentolamine]
Ki ([5]; inhibiting stimulation by DCDM (a formamidine)): 18 µM
Ki ([5]; inhibiting stimulation by compound IV): 20 µM
Ki ([5]; inhibiting stimulation by octopamine (OCT)): 46 µM
inhibition of compound IV stimulation of adenylate cyclase (in words) [5]: inhibited

CC(C)NCC(O)COc1cccc2ccccc12 (centres unmarked) [Propranolol, propranolol]
inhibition of compound IV stimulation of adenylate cyclase (in words) [5]: less potent

CNC=Nc1ccc(Cl)cc1C [DCDM, N-demethylchlordimeform]
agonist character in adenylate cyclase stimulation [12]: partial agonist
potency relative to octopamine in adenylate cyclase stimulation [12]: about six
